Test results from PubChem BioAssay (NCI).
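Grown in 96-well plates, cells were treated for 48 hours with each compound at five concentrations. Insufficient inhibition: endpoint recorded as highest concentration tested. At the TGI there is no net growth.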

How the values were obtained:
Experiment in all cases: NCI tumour cell line growth inhibition, 48 h
NCI-H522 lung = tested on: NCI-H522 lung
UO-31 renal = tested on: UO-31 renal
K-562 leukemia = tested on: K-562 leukemia
M14 melanoma = tested on: M14 melanoma
COLO 205 colon = tested on: COLO 205 colon
MCF7 breast = tested on: MCF7 breast
NCI-H226 lung = tested on: NCI-H226 lung
A498 renal = tested on: A498 renal
SNB-19 CNS = tested on: SNB-19 CNS
MDA-MB-231 breast = tested on: MDA-MB-231 breast
RPMI-8226 leukemia = tested on: RPMI-8226 leukemia

Row | SMILES | TGI (NCI-H522 lung) [µM] | TGI (UO-31 renal) [µM] | TGI (K-562 leukemia) [µM] | TGI (M14 melanoma) [µM] | TGI (COLO 205 colon) [µM] | TGI (MCF7 breast) [µM] | TGI (NCI-H226 lung) [µM] | TGI (A498 renal) [µM] | TGI (SNB-19 CNS) [µM] | TGI (MDA-MB-231 breast) [µM] | TGI (RPMI-8226 leukemia) [µM]
1 | CC1OC=CC(=O)C1O (configuration not stated) | > 100 | > 100 | > 100 | > 100 |  |  |  |  |  |  | 
2 | Cc1ccc(S(=O)(=O)N2CCN(CCO)CCN(S(=O)(=O)c3ccc(C)cc3)CCN(CCO)CC2)cc1 | 33.2 | > 100 | 35.3 | 31.5 | 33.2 | 28.2 | > 100 | 62.7 | > 100 | 48.4 | 
3 | c1ccc(COc2cccc3cccnc23)cc1 | > 100 | > 100 | > 100 | > 100 | > 100 |  | > 100 |  | > 100 |  | > 100
4 | COC(=O)C(C(=O)OC)C1CC(=O)c2c(Br)sc(Br)c21 (configuration not stated) |  | 29.5 | 53.5 | 40.8 | 28.5 | 73.2 | 53.4 | > 100 | 47.3 |  | 26.4
5 | C[n+]1c(-c2ccc(/C=N/Nc3ccnc(N/N=C/c4ccc(-c5cn6ccccc6[n+]5C)cc4)n3)cc2)cn2ccccc21 | > 100 | 45.4 |  | > 100 | > 100 |  |  |  | > 100 | > 100 | 73.3
6 | CN(CCN(C)C(=O)CCn1ccc(=O)[nH]c1=O)C(=O)CCn1ccc(=O)[nH]c1=O | > 100 | > 100 | > 100 | > 100 | > 100 |  | > 100 |  | > 100 |  | > 100
7 | C=C1CC(OC)(C(O)C(=O)N[C@H]2OCO[C@H]3C2O[C@H](C[C@H](O)COC)C(C)(C)C3OC)O[C@H](C)[C@@H]1C (some centres not stated) | > 0.00772 | > 0.00772 | > 0.00772 |  | > 0.00772 | > 0.00772 | > 0.00772 | > 0.00772 | > 0.00772 |  | > 0.00772
8 | c1ccc(-c2[nH]c(-c3ccccc3)c(-c3cnccn3)c2-c2cnccn2)cc1 | > 100 | > 100 | > 100 | > 100 | > 100 |  | > 100 | > 100 | > 100 |  | > 100
9 | CC1(C)Oc2ccc3c(=O)c4ccccc4oc3c2C1C(=O)O (configuration not stated) | > 100 |  | > 100 | > 100 | > 100 | > 100 | > 100 | > 100 |  | > 100 | 
